The nature of data set [1]: Stability in biological media: dog plasma. The format is in vitro ADME. The settings on record: Dog plasma (beagle), 50 μg/ml, 37° C.
Data set [2] concerns mut-KRAS NSCLC cell lines. Kind of data set: Screening against NSCLC cell line panel, mut-KRAS lines. In kind it is cell-based. The method, then: (§1) The isogenic KRAS lines harboring G12D, G12C, and G12V were obtained from Horizon Discovery labs on a one year lease. These cells were cultured in McCoys media with 10% FBS to 80% confluency. Cells were then released from flasks via trypsinization and plated into 96-well plates at an initial density range of 2000 cells per well. Cells were allowed 24 hours to attach, and then the agents were added to the culture media at a range of concentrations from 0-100 μM. Cells were incubated for 72 hours with the drugs, and then viability was assessed using an MTS viability assay. Cells were exposed to MTS reagent (Promega) dissolved in PBS (Hyclone) at a concentration of 200 μL reagent/mL media for 2 hours. Absorbance was then read at 490 nm, and viability was expressed as a percentage normalized between the negative control (no cells plated) and the condition of cells with no drug added (100% viability) normalized as the upper limit of viability.
(§2) Our panel of 30 cell lines and an extensive characterization were obtained from Dr. John Minna (UTSW). All cell lines were cultured in RPMI 1640 with 10% FBS. Cells were treated with concentrations of agents at concentrations 0.01 to 50 μM and evaluated as described above. IC50's were determined using Excelfit.

In data set [3] the test system is H1373 (KRAS mutant cell line). Kind of data set: Proliferation Assay H1373. The following applies: Homo sapiens, NCI-H1373, N = 2 experiments. The format is cell-based. An outline of the steps:
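Cells plated 2000 per well, allowed 24 h to attach, then exposed 72 h to agents (0-100 μM for isogenic lines; 0.01 to 50 μM for the RPMI 1640/10% FBS-cultured 30-line NSCLC panel). MTS read at 490 nm after 2 h, normalized to no-cell and no-drug controls; IC50 from curve fitting.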

The target in the next data set is T1, CNK1 PH-domain (CNKSR1) (Homo sapiens, UniProt Q969H4).
T1 construct: The PH-domain His-fusion proteins (CNK1 and AKT1) were expressed and immobilized on a NTA chip; made in house
T1 sequence (Q969H4 403-502 limits assumed): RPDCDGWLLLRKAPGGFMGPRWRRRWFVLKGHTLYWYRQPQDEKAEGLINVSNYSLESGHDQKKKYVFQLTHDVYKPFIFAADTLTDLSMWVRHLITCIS
Kind of data set: SPR binding assay (Biacore T100), CNK1 PH-domain. An outline of the steps: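 His-tagged CNK1 PH-domain was captured on an NTA chip to ≤10,000 RU. Small-molecule analytes were injected at 50 μM to 0.010 μM at 30 μL/min, with 1-5% (v/v) DMSO in samples and running buffer. Binding was measured by surface plasmon resonance.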

In the next data set the target is T2, PH-domain of AKT (Homo sapiens, UniProt P31749).
T2 construct: made in house
T2 sequence (P31749 5-108 limits assumed): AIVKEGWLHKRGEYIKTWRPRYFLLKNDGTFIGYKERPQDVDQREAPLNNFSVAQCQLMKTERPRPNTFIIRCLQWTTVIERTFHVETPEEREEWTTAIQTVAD
Kind of data set: SPR binding to expressed PH-domain of AKT. The method, then:
(§3) In embodiments, the binding of identified compounds to the crystal structures of other PH-domain signaling proteins, AKT, PDPK1, Btk, and Tiam1 can be predicted. In such embodiments, the Kds exceed about 100 μM. In other embodiments, SPR can measure the binding of identified compounds to the expressed PH-domains of AKT, PDPK1 and Tiam1. […] Thus, the identified compounds appear have, at least, about 50 to about 100 fold selectivity for CNKSR1 compared to the other PH-domains studied.
(§4) A commercially available docking package, GOLD (GOLD [3.2], CCDC: Cambridge, UK, 2007) was used to evaluate the docking of compounds 1-7 into the binding pocket, see e.g. Table 5. Other docking was performed using modeling algorithms with state-of-the-art commercial drug discovery software (Schrodinger suite). GLIDE was chosen as the docking algorithm used to select and optimize compounds, providing a GlideScore as a rough estimate of binding affinity that was used to rank and select the best compounds. Additionally, ligand-based approaches provided an alternative to structure based drug discovery. Ligand-based virtual screening methodologies can take into account shape and electrostatics (like ROCS) and the pharmacophoric features (acceptor, donor, hydrophobic, aromatic, etc.) of its functional groups. […]

The target of the next data set is T3, PH-domain of CNKSR1 (Homo sapiens, UniProt Q969H4).
T3 sequence (Q969H4 403-502 limits assumed): T1 sequence (Q969H4 403-502 limits assumed)
Kind of data set: SPR binding (Biacore 2000) to CNKSR1 PH-domain, initial hits. The settings on record: Table 5. The method, then: In embodiments, a homology model for the PH-domain of CNSKR1 based on known PH-domain crystal structures can be developed. The docking program PHuDock® can be used to identify potential inhibitors of CNKSR1. […] The binding of the compounds to the expressed PH-domain of CNKSR1 (KDobs) can be measured by surface plasmon resonance (SPR) spectroscopy.
Other docking was performed using modeling algorithms with state-of-the-art commercial drug discovery software (Schrodinger suite). […] Additionally, ligand-based approaches provided an alternative to structure based drug discovery. Ligand-based virtual screening methodologies can take into account shape and electrostatics (like ROCS) and the pharmacophoric features (acceptor, donor, hydrophobic, aromatic, etc.) of its functional groups. […] SPR interaction analyses of all other compounds was undertaken using a Biacore T100 with Control and Evaluation software kit.

The next data set has as its system wt-KRAS NSCLC cell lines. Put plainly: Screening against NSCLC cell line panel, wt-KRAS lines. The format is cell-based. The following applies: Table 6, mean of 3 wt-KRAS lines; read-out: NSCL cell line cytotoxicity IC50 wt-KRAS. The protocol: as §1, §2
The next data set deals with T4, PH-domain of PDPK1 (Homo sapiens, UniProt O15530).
T4 construct: made in house
T4 sequence (O15530 459-550 limits assumed): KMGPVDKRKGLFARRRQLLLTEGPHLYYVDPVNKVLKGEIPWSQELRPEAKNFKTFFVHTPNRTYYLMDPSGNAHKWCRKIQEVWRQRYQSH
Kind of data set: SPR binding to expressed PH-domain of PDPK1. The protocol: as §3, §4

Data set [4] in a line: Stability in biological media: mouse plasma. The format is in vitro ADME. The following applies: 50 μg/ml, 37° C.
Data set [5] has as its system mut-KRAS H2122 NSCLC tumor xenograft. Kind of data set: Antitumor activity, H2122 xenograft. The format is in vivo. The following applies: scid mice. The protocol:
In embodiments, identified compounds may be nontoxic at about […] for about 20 days with no weight loss and no observable toxic effects for the animal, and may have antitumor activity (FIG. 4 A).

Structures are written as SMILES. Entries after “also recorded” stand apart in the source; their conditions may differ. Read-outs that look alike come from different tables or passages of the source.

With `CCOC(=O)Cc1nn(Cc2nc(-c3ccc(C)cc3)cs2)c(=O)c2ccccc12` [Compound 7], the Half life in data set [1] was 9.3 h; in data set [4], 6.3 min. For the same compound, the “inhibition of mut-KRAS cell growth (in words)” value in data set [2] (FIG. 3 and FIG. 5) is on record as “low micromolar inhibition; also recorded: as effectively as siRNA to KRAS or CNKSR1”. The IC50 is 23.9 ± 2.5 µM in data set [2] (Table 5, read-out: Mean IC50 mut-KRAS); 49 µM in [2] (Table 6, mean of 3 mut-KRAS lines, read-out: NSCL cell line cytotoxicity IC50 mut-KRAS); more than 100 µM in data set [3]; more than 100 µM in the data set with wt-KRAS NSCLC cell lines. Besides, the Kd on CNK1 PH-domain (CNKSR1) (Table 6, read-out: CNKS KD) is 3.2 µM; on PH-domain of CNKSR1, 1.8 ± 0.6 µM. In addition, the “Surface Plasmon Resonance CNKSR1 binding (RU max)” value on CNK1 PH-domain (CNKSR1) (date 11 26 13) is given as 5.019 RU * 100/Da; at CNK1 PH-domain (CNKSR1) (date 12 09 13), 0.205 RU * 100/Da. In addition, the figures for the “Surface Plasmon Resonance CNKSR1 stability (RU max post-injection)” value at CNK1 PH-domain (CNKSR1) (date 11 26 13) and at CNK1 PH-domain (CNKSR1) (date 12 09 13) were 0.761 RU * 100/Da and 0.798 RU * 100/Da, respectively. For the same compound, the “SPR binding to PH-domain of AKT” value on PH-domain of AKT is “No measurable binding”. For the same compound, the “SPR binding to PH-domain of PDPK1” value at PH-domain of PDPK1 is “No measurable binding”. Also, the “tumor growth rate inhibition” value in [5] was “about 45%”. Further, the tumor growth rate result in [5] (vehicle about 55) is listed as “about 30 mm^3/day”.

The values are drawn from patent publication US9340532B2, “Methods and compositions for inhibiting CNKSR1” (PHUSIS THERAPEUTICS, INC., priority 2012, dated 2016).
